Laboratory results taken from patent EP0253662B1, “Pharmaceutical compositions” (ED. GEISTLICH SÖHNE AG FÜR CHEMISCHE INDUSTRIE, priority 1986, dated 1988).
≈ marks a conversion by molar mass, not a printed value.

How the values were obtained:
[1] = intravenous infusion tolerance (vagotonic side effects); format: in vivo
From the text: This is a surprising effect of considerable value in ensuring that taurolidine can be given intravenously at a rapid rate of infusion, for example in cases of endotoxin shock. In general, the overall intravenous tolerance of taurolidine is increased by the presence of glucose. The same advantages apply also to taurultam.

[2] = water-solubility; format: physicochemical; settings: in water
Method: However, the water-solubility of both compounds is relatively low, namely I g/litre in the case of taurolidine and 8 g/litre in the case of taurultam. Relatively large quantities of the compounds are required where toxaemia is well established and even where the compounds are administered in large volumes by intravenous infusion, low solubility can limit their use. In particular, during treatment of patients suffering from septic shock and consequent renal insufficiency, administration of significant quantities of liquid (after an initial period of volume compensation) is contra-indicated and the intravenous infusion solution should be as concentrated as possible. Where glucose is present, this is also beneficial in such cases in order to support the brain cells.

solubility [2] [µg/mL]	Compound	vagotonic side effects, such as meiosis, lachrymation, salivation, bradycardia and excitation ([1]; 2% aqueous taurolidine containing polyvinylpyrrolidone, administered intravenously, high rates of infusion)	vagotonic effects ([1]; administered in glucose solution rather than polyvinylpyrrolidone, intravenously)
	O=S1(=O)CCN(CN2CCS(=O)(=O)NC2)CN1 [taurolidine]	short duration vagotonic side effects occur	such vagotonic effects are not observed
8000 (≈ 58.7 mM)	O=S1(=O)CCNCN1 [taurultam]		
